Experiments:
HEK-Blue TGFβ cell = assay: HEK-Blue TGFβ cellular reporter gene assay (SEAP readout); assay type: cell-based; conditions: HEK-Blue TGFβ cells stimulated with TGF-β, 22-23 h incubation, SEAP read at 630 nm
Outline: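 Cells (2.5×10^5 cells/ml suspension) in DMEM with 0.5% heat-inactivated FBS stimulated with TGF-β (6 ng/ml working solution) plus compound at eight 3-fold dilutions for 22-23 h at 37° C. Supernatant SEAP measured with QUANTI-Blue after 30-40 min, absorbance 630 nm; percent inhibition calculated.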

[1] = Tissue exposure (liver and heart) in Balb/c mouse after PO dosing, general PK protocol; assay type: in vivo; conditions: PO (intragastric) 10 mg/Kg, liver and heart tissue 0.5-24 h, LC-MS/MS
Procedure: Comparing AUCliver/AUCheart ratio of selected Examples with clinic compounds Galunisertib and LY3200882. Tissue exposure was measured in Balb/c mouse with PO dosing at 10 mpk. […] See Stauber, et al., J. Clin. Pract., 2014, 4(3), 196.
The Balb/c mice were fasted overnight with free access to drinking water prior to treatment. Compounds were formulated in 0.5% CMC/0.5% Tween 80 with or without 1 eq. of NaOH, and administrated intragastrically at 10 mg/Kg. The liver and heart tissues of mice were collected at time points 0.5, 1, 3, 5, 7, 24 h (2 mice per time point) post dose by first sacrificing the animal by C02 inhalation. After flushing with ice saline and removal of excess water on its surface, the liver and heart tissues were weighed and homogenized in 1:5 volumes (w/v) of water with 20% methanol. Tissue samples were kept at −40˜−20° C. prior to analysis. Concentrations of compounds in the liver and hearts were determined using an established liquid chromatography-tandem mass spectrometry (LC-MS/MS) method. Tissue concentration-time data were processed by linear regression analysis. All pharmacokinetic parameters were calculated using non-compartment model of Pharsight Phoenix 8.0.

[2] = Stauber, et al., J. Clin. Pract., 2014, 4(3), 196; cited from earlier work

Row | SMILES | IC50 (HEK-Blue TGFβ cell) | AUCliver/AUCheart [1] | Cardiac toxicity [2]
1 | Cc1cc(Oc2ccnc(Nc3cccc(CCC(=O)O)c3)c2)c(-c2ccccn2)nc1C [Example 1, 3-(3-((4-((5,6-dimethyl-[2,2′-bipyridin]-3-yl)oxy)pyridin-2-yl)amino)phenyl)propanoic acid] | 0.18 µM | 13.2 | –
2 | Cc1cc(Oc2ccnc(Nc3cccc(CCc4nn[nH]n4)c3)c2)c(-c2ccccn2)nc1C [Example 12, N-(3-(2-(2H-tetrazol-5-yl)ethyl)phenyl)-4-((5,6-dimethyl-[2,2′-bipyridin]-3-yl)oxy)pyridin-2-amine] | 0.13 µM | 60.9 | –
3 | Cc1cc(Oc2ccnc(Nc3cccc(Cc4nnn[nH]4)c3)c2)c(-c2ccccn2)nc1C [Example 16, N-(3-((1H-tetrazol-5-yl)methyl)phenyl)-4-((5,6-dimethyl-[2,2′-bipyridin]-3-yl)oxy)pyridin-2-amine] | 0.39 µM | 142 | –
4 | Cc1ccc(Oc2ccnc(Nc3cccc(CCc4nn[nH]n4)c3)c2)c(C)n1 [Example 44, N-(3-(2-(2H-tetrazol-5-yl)ethyl)phenyl)-4-((2,6-dimethylpyridin-3-yl)oxy)pyridin-2-amine] | 0.12 µM | 29.9 | –
5 | Cc1ccc(Oc2ccnc(Nc3cccc(CCc4nn[nH]n4)c3)c2)c(-c2ccccc2)n1 [Example 52, N-(3-(2-(2H-tetrazol-5-yl)ethyl)phenyl)-4-((6-methyl-2-phenylpyridin-3-yl)oxy)pyridin-2-amine] | 0.037 µM | 70.6 | –
6 | Cc1ccc(Oc2ccnc(Nc3cccc(C(C)(C)C(=O)O)c3)c2)c(-c2ccccc2)n1 [Example 70, 2-methyl-2-(3-((4-((6-methyl-2-phenylpyridin-3-yl)oxy)pyridin-2-yl)amino)phenyl)propanoic acid] | 0.007 µM | 67.7 | –
7 | CC(C)(C(=O)O)c1cccc(Nc2cc(Oc3cn(C4CC4)nc3C3CCOCC3)ccn2)c1 [Example 74] | 0.23 µM | 266 | –
8 | CCc1ccc(Oc2ccnc(Nc3cccc(C(C)(C)C(=O)O)c3)c2)c(C)n1 [Example 81, 2-(3-((4-((6-ethyl-2-methylpyridin-3-yl)oxy)pyridin-2-yl)amino)phenyl)-2-methylpropanoic acid] | 0.031 µM | 124 | –
9 | CCc1ccc(Oc2ccnc(Nc3cccc(C(C)(C)C(=O)O)c3)c2)c(-c2ccccc2)n1 [Example 104] | 0.022 µM | 27.8 | –
10 | CCc1ccc(Oc2ccnc(Nc3cccc(CCc4nn[nH]n4)c3)c2)c(-c2ccccn2)n1 [Example 175, N-(3-(2-(2H-tetrazol-5-yl)ethyl)phenyl)-4-((6-ethyl-[2,2′-bipyridin]-3-yl)oxy)pyridin-2-amine] | 0.044 µM | 183 | –
11 | Cc1cc(Cc2nn[nH]n2)cc(Nc2cc(Oc3cn(C4CCC4)nc3-c3ccccc3)ccn2)c1 [Example 202] | 0.12 µM | – | –
12 | Cc1cccc(-c2nn3c(c2-c2ccnc4ccc(C(N)=O)cc24)CCC3)n1 [Galunisertib, galunisertib, reference compound] | – | 2.9 | limiting factor
13 | CC(C)(O)c1cc(Nc2cc(Oc3cn(C4CC4)nc3C3CCOCC3)ccn2)ccn1 [LY3200882, reference compound] | – | 1.3 | cardiac toxicity was identified as the most relevant

Reference: patent publication US20220054465A1, “(PYRIDIN-2-YL)AMINE DERIVATIVES AS TGF-BETA R1 (ALK5) INHIBITORS FOR THE TREATMENT OF CANCER” (Nexys Therapeutics, Inc., priority 2018, published 2022)
